In article PMC6629785, “Synthesis and Pharmacological Evaluation of a Novel Peptide Based on Anemonia sulcata BDS-I Toxin as a New KV3.4 Inhibitor Exerting a Neuroprotective Effect Against Amyloid-β Peptide” (Frontiers in Chemistry, 2019):
Ends that are not written are not given here.

Target: T1, KV3.4 channels (Homo sapiens, UniProt Q03721)
T1 construct: expressed in transfected cells; host or cells: CHO cells, transient transfection with Lipofectamine 2000; cDNAs provided by Professor Goldstein, University of Chicago
T1 sequence (Q03721 1-635): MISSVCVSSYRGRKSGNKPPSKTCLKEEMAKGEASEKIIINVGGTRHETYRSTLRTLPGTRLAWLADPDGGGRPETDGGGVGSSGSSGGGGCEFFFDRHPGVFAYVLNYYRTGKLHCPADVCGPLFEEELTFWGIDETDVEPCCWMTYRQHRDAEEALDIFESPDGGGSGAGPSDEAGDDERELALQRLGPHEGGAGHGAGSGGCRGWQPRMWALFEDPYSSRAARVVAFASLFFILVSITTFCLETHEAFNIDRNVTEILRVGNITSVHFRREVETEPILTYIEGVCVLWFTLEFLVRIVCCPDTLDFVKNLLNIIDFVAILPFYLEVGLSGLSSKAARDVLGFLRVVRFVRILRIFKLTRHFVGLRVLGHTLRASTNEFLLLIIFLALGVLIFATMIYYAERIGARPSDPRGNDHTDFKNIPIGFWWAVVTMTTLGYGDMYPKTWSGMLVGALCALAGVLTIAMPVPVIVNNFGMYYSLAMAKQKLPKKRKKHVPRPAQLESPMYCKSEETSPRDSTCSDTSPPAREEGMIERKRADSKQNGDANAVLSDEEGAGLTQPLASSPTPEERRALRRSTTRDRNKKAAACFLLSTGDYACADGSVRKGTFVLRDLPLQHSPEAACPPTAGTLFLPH
T1 sequence (Q9Y6H6 1-103 partner): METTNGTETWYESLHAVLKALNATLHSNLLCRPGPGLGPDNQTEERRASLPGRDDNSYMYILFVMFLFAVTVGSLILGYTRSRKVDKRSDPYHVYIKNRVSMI
Test: Whole-cell patch clamp of Kv3.4 currents in CHO cells transiently transfected with Kv3.4/MiRP2
Assay type: cell-based
Settings: for percentage of inhibition of Kv3.4 currents: acute application in extracellular solution, peak of depolarizing pulse +60 mV, [(C0-C1)/C0] x 100, mean of 6 to 10 cells, three sessions
Method: KV3.4 and MiRP2 channel subunits were expressed in Chinese hamster ovary (CHO) cells by transient transfection. CHO cells were grown in 100 mm plastic Petri dishes in Dulbecco's Modified Eagle Medium containing 10% fetal bovine serum (FBS), non-essential amino acids (0.1 mm), penicillin (50 U/ml), and streptomycin (50 μg/ml) in a humidified atmosphere at 37°C with 5% CO2 (Miceli et al., [2015]). KV3.4 and MiRP2 cDNAs were kindly provided by the Professor Goldstein of the Department of Pediatrics and Institute for Molecular Pediatric Sciences, University of Chicago, USA. For electrophysiological experiments, cells were seeded on glass cover-slips (Glaswarenfabrik Karl Hecht KG, Sondheim, Germany) coated with poly-L-lysine (50 μg/mL) and transfected the next day with the appropriate cDNAs using Lipofectamine 2000 according to guidelines for transfection. We performed electrophysiological experiments 48 h after transfection.
Currents from CHO cells were recorded at room temperature 1-2 days after transfection. The extracellular solution contained the following (in mM): 138 NaCl, 5.4 KCl, 2 CaCl2, 1 MgCl2, 10 glucose and 10 HEPES, adjusted pH 7.4 with NaOH. The pipette solution contained (in mM) the following: 140 KCl, 2 MgCl2, 10 EGTA, 10 HEPES, 5 Mg-ATP, adjusted pH 7.4 with KOH (Miceli et al., [2015]). KV3.4 currents were measured by applying voltage steps from −100 mV to +60 mV from a holding potential of −80 mV (Abbott et al., [2001]). Moreover, the total outward K^+ currents were recorded in NGF-differentiated PC-12 cells using the extracellular solution contained the following (in mM): 150 NaCl, 5.4 KCl, 3 CaCl2, 1 MgCl2, 10 HEPES, adjusted pH 7.4 with NaOH. The pipette solution contained the following (in mM): 140 KCl, 2 MgCl2, 10 HEPES, 10 glucose, 10 EGTA, and 1 Mg-ATP adjusted at pH 7.4 with KOH (Diochot et al., [1998]). All experiments were performed in the presence of 50 nM tetrodotoxin (TTX) and 10 μ M nimodipine in the extracellular solution. To discriminate K^+ current components appropriate electrophysiological protocols were used (Pannaccione et al., [2007]). Steady-state activation and inactivation properties were measured by using appropriate protocols (Pannaccione et al., [2005]). Capacitive currents were elicited by 5-mV depolarizing pulses from −80 mV and acquired at a sampling rate of 50 kHz. The capacitance of the membrane was calculated according to the following equation: Cm = τc·Io/ΔEm (1-I∞/Io), where Cm is membrane capacitance, τc is the time constant of the membrane capacitance, Io is the maximum capacitance current value, ΔEm is the amplitude of the voltage step, and I∞ is the amplitude of the steady-state current. K^+ currents were recorded by patch-clamp technique in CHO and NGF-differentiated PC-12 cells using a commercially available amplifier (Axopatch 200B, Molecular Devices) and Digidata 1322A interface (Molecular Devices, USA). The whole-cell configuration of the patch-clamp technique was adopted using glass micropipettes with a resistance of 2.5-5.0 MΩ. Data were acquired and analyzed using the pClamp software (version 9, Molecular Devices).
For the acute treatment, each peptide has been added in the extracellular solution. For each cell, we first recorded K^+ currents as previously described, in the absence of peptides. After that, we switched from the extracellular solution without BDS-I peptides to the extracellular solution containing the BDS-I peptide. In these conditions, we recorded K^+ currents until the steady-state was reached. This protocol has been performed to test the effect on KV3.4 currents of each BDS-I fragment as well as of BDS-I[1-8scr].
To identify the smallest BDS-I amino acid sequence able to block Kv3.4 activity, we evaluated the effect of the newly synthesized BDS-I fragments in CHO cells transiently transfected with Kv3.4/MiRP2, by patch clamp technique in whole cell configuration. […]

[1] = peptide 100 nM, CHO cells transfected with Kv3.4/MiRP2

Substance | effect on steady-state parameters for activation and inactivation of Kv3.4 currents (100 nM, Boltzmann fit) | time of peptide exposure at which steady-state of inhibition was reached (100 nM, currents at peak of repetitive (20 sec) depolarizing pulses (+60 mV)) | voltage dependence of Kv3.4 current inhibition (I-V relationship) (100 nM, peak current before and during application, pulses from +60 to −100 mV) | IC50 (CHO cells transiently transfected with KV3.4/MiRP2, inhibitory dose-response curve, % of inhibition normalized to controls) | percentage of inhibition of Kv3.4 currents [1] | ability to inhibit Kv3.4 currents (in words) (peptide 100 nM, acute application, CHO cells transfected with Kv3.4/MiRP2, whole-cell patch clamp)
AAPAFASG [BDS-I[1-8]] | did not modify | 150 s | not voltage-dependent | 75 nM | more than 80% | –
H-GSAFAPAA-OH [BDS-I[1-8scr]] | – | – | – | – | – | not able to modify KV3.4 activity
blood depressing substance-I [BDS-I] | – | – | – | – | ~ 60% | –
